Broadly, the IC50 is the point on the concentration scale where inhibition reaches its midpoint.

The results in this text go back to patent US10160755B2 (Plexxikon Inc., priority 2015, dated 2018).

The target of one test is T1, FLT3-D835Y (Homo sapiens, UniProt P36888, D835Y).
T1 construct: purchased Invitrogen PV3967
T1 sequence (P36888 27-993 D835Y): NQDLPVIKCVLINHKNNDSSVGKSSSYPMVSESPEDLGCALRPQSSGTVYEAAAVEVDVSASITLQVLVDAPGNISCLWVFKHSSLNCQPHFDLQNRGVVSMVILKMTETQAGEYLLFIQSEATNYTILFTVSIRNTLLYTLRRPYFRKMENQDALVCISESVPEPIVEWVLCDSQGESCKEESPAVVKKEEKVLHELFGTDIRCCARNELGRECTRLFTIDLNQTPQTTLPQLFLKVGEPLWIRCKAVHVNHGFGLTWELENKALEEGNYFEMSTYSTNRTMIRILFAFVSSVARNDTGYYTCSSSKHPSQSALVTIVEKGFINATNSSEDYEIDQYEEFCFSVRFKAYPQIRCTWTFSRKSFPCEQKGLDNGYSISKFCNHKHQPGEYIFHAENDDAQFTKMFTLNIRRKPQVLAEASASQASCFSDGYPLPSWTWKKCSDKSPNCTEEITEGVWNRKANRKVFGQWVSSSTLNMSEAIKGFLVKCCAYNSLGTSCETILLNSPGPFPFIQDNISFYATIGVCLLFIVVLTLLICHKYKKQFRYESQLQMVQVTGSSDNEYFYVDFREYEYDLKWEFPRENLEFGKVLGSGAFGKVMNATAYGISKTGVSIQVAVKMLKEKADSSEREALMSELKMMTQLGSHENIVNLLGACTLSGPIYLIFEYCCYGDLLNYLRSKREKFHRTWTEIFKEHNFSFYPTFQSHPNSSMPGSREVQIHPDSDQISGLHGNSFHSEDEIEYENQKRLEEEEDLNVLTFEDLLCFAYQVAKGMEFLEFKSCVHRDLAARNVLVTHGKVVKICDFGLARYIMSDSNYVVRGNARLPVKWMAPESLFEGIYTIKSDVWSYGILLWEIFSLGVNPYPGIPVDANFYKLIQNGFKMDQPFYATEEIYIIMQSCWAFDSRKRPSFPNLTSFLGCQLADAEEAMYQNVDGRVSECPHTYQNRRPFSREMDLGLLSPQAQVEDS
Put plainly: FLT3-D835Y biochemical kinase assay (AlphaScreen). An excerpt:
(§1) In order to determine the effect of compounds on FLT3 catalytic activity, kinase assays using recombinant enzymes and AlphaScreen® technology have been established. When the kinases are catalytically active, they phosphorylate a biotinylated peptide substrate on tyrosine residues. Using AlphaScreen® technology, the ability of the compounds to affect the catalytic activity of the kinases can be measured quantitatively. The peptide substrate is immobilized by the AlphaScreen® Streptavidin Donor beads and, upon phosphorylation by a tyrosine kinase, can bind to AlphaScreen® Anti-Phosphotyrosine (PY20) Acceptor beads. Upon excitation of these beads with laser light at 680 nm, singlet oxygen is produced. This singlet oxygen is rapidly quenched, unless the AlphaScreen® Anti-Phosphotyrosine (PY20) Acceptor beads are in close proximity, in which case a proximity signal can be measured at 580 nm. In the presence of catalytic activity, there is a very strong proximity signal. Selective kinase inhibitors affect a decrease in this proximity signal through a decrease in tyrosine phosphorylation of the peptide substrate.
(§2) Substrate • Poly (Glu4-Tyr) Peptide, biotin conjugate [Biotin-GG(EEEEY)10EE (SEQ ID NO: 4)] • UBI/Millipore #12-440 • Final concentration=30 nM
(§3) Adenosine Triphosphate (ATP) • Sigma #A-3377 • Final concentration for IC50 determination=10 μM (FLT3-D835Y) or 100 μM (FLT3 or FLT3-ITD) • Detection Reagent • AlphaScreen® Phosphotyrosine (PY20) Assay Kit • Perkin-Elmer #6760601M • Final concentration=10 μg/mL
(§4) Centrifuge 1 minute, shake to mix, and incubate as follows:
(§5) • Mix Streptavidin Donor beads at 6× final concentration in Stop/Detection buffer. • Add 5 μL Streptavidin Donor beads to the reaction plate. Centrifuge 1 minute, shake to mix, and incubate at room temperature for 20 minutes. • Mix Anti-Phosphotyrosine (PY20) Acceptor beads at 6× final concentration in Stop/Detection buffer. • Add 5 μL Anti-Phosphotyrosine (PY20) beads to the reaction plate. • Centrifuge 1 minute, shake to mix, and incubate at room temperature for 60 minutes. • Read plate on Wallac EnVision™ 2103 Multilabel Reader. In Vivo Model System Testing

The next test has as its target T2, FLT3-ITD (Homo sapiens, UniProt P36888).
T2 construct: FLT3-ITD; Invitrogen #PV6190
T2 sequence (P36888 1-993): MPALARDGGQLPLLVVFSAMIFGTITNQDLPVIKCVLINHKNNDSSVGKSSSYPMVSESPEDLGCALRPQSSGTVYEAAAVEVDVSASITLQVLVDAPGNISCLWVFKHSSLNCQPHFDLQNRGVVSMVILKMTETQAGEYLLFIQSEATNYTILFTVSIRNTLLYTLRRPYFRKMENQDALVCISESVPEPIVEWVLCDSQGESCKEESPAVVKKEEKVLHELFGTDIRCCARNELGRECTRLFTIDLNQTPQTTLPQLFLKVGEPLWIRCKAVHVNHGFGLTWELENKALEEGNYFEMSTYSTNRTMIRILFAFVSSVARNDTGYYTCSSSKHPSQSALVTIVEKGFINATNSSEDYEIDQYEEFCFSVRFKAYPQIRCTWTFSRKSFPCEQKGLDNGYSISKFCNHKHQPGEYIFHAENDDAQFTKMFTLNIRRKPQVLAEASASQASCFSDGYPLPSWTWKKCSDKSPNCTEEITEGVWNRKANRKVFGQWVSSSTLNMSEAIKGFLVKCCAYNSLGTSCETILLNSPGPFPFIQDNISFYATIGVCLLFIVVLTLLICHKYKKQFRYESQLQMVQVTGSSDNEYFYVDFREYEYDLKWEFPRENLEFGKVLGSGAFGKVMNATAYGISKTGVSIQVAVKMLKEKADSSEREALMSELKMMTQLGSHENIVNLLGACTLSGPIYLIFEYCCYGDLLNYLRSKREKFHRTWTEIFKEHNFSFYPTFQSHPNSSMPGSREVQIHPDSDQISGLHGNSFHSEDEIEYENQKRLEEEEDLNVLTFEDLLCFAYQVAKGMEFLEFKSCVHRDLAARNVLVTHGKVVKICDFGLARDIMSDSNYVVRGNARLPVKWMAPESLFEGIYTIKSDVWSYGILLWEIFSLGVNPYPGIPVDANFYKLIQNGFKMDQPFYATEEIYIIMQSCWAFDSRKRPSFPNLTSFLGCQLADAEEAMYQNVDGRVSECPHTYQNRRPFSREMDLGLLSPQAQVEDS
In words: FLT3-ITD biochemical kinase assay (AlphaScreen).
Text: as §1, §2, §3, §4, §5
Background: Alpha assays give light when donor and acceptor beads are brought close together.

On to `COc1cc(-c2cnc3[nH]cc(-c4ccc5c(c4)N(C(C)C)CCO5)c3n2)ccn1` [P-187, 4-isopropyl-6-[2-(2-methoxy-4-pyridyl)-5H-pyrrolo[2,3-b]pyrazin-7-yl]-2,3-dihydro-1,4-benzoxazine], for which the IC50 on FLT3-D835Y and against FLT3-ITD was 0.0001 to 1 µM throughout.
With `CC(C)(C)n1cnc2ccc(-c3c[nH]c4ncc(-c5ccc(C6CC6)nc5)nc34)cc21` [P-353, 7-(3-tert-butylbenzimidazol-5-yl)-2-(6-cyclopropyl-3-pyridyl)-5H-pyrrolo[2,3-b]pyrazine], the IC50 against FLT3-D835Y and at FLT3-ITD was 0.0001 to 1 µM in each case.
As for `Fc1ccc(-n2cnc3ccc(-c4c[nH]c5ncc(-c6cccc(OC(F)(F)F)c6)cc45)cc32)cc1` [P-204, 1-(4-fluorophenyl)-6-[5-[3-(trifluoromethoxy)phenyl]-1H-pyrrolo[2,3-b]pyridin-3-yl]benzimidazole], the IC50 on FLT3-D835Y and on FLT3-ITD was 0.0001 to 1 µM in each case.
As for `CC(C)(C)n1cnc2ccc(-c3c[nH]c4ncc(-c5cccc(C#N)c5)cc34)cc21` [P-199, 3-[3-(3-tert-butylbenzimidazol-5-yl)-1H-pyrrolo[2,3-b]pyridin-5-yl]benzonitrile], the IC50 at FLT3-D835Y and against FLT3-ITD was 0.0001 to 1 µM each time.
As to `O=S(=O)(Nc1cnc2[nH]cc(-c3ccc4ncn(C5CCCNC5)c4c3)c2c1)c1cccc(OC(F)(F)F)c1` (stereo not drawn) [P-212, N-[3-[3-(3-piperidyl)benzimidazol-5-yl]-1H-pyrrolo[2,3-b]pyridin-5-yl]-3-(trifluoromethoxy)benzenesulfonamide], the IC50 on FLT3-D835Y and against FLT3-ITD was 0.0001 to 1 µM in each case.
Consider `COc1cc(-c2cnc3[nH]cc(-c4ccc5ncn(C)c5c4)c3n2)cc(C)n1` [P-180, 2-(2-methoxy-6-methyl-4-pyridyl)-7-(3-methylbenzimidazol-5-yl)-5H-pyrrolo[2,3-b]pyrazine], for which the IC50 against FLT3-D835Y and against FLT3-ITD was 0.0001 to 1 µM in each case.
In the case of `N#Cc1cccc(S(=O)(=O)Nc2cnc3[nH]cc(-c4ccc5ncn(C6CCCNC6)c5c4)c3c2)c1` (stereo not drawn) [P-234, 3-cyano-N-[3-[3-(3-piperidyl)benzimidazol-5-yl]-1H-pyrrolo[2,3-b]pyridin-5-yl]benzenesulfonamide], the IC50 against FLT3-D835Y and against FLT3-ITD was 0.0001 to 1 µM in each case.
With `COc1cc(-c2cnc3[nH]cc(-c4ccc5ncn(-c6ccc(F)cc6)c5c4)c3n2)ccn1` [P-206, 7-[3-(4-fluorophenyl)benzimidazol-5-yl]-2-(2-methoxy-4-pyridyl)-5H-pyrrolo[2,3-b]pyrazine], the IC50 against FLT3-D835Y and on FLT3-ITD was 0.0001 to 1 µM each time.
Turning to `CCCS(=O)(=O)Nc1cccc(-c2cnc3[nH]cc(-c4ccc5ncsc5c4)c3n2)c1` [P-168, N-[3-[7-(1,3-benzothiazol-6-yl)-5H-pyrrolo[2,3-b]pyrazin-2-yl]phenyl]propane-1-sulfonamide], the IC50 against FLT3-D835Y and at FLT3-ITD was 0.0001 to 1 µM in each case.
As to `c1cc(-c2cnc3[nH]cc(-c4ccc5ncsc5c4)c3n2)cc(N2CCOCC2)c1` [P-163, 4-[3-[7-(1,3-benzothiazol-6-yl)-5H-pyrrolo[2,3-b]pyrazin-2-yl]phenyl]morpholine], the IC50 on FLT3-D835Y and at FLT3-ITD was 0.0001 to 1 µM throughout.
As for `CC(C)(C)n1cnc2ccc(-c3c[nH]c4ncc(-c5cccc(OC(F)(F)F)c5)cc34)cc21` [P-202, 1-tert-butyl-6-[5-[3-(trifluoromethoxy)phenyl]-1H-pyrrolo[2,3-b]pyridin-3-yl]benzimidazole], the IC50 against FLT3-D835Y and against FLT3-ITD was 0.0001 to 1 µM in each case.
For the compound `COc1cc(-c2cnc3[nH]cc(-c4ccc5ncn(C)c5c4)c3n2)ccc1Cl` [P-149, 2-(4-chloro-3-methoxy-phenyl)-7-(3-methylbenzimidazol-5-yl)-5H-pyrrolo[2,3-b]pyrazine], the IC50 on FLT3-D835Y and on FLT3-ITD was 0.0001 to 1 µM throughout.
Take `N#Cc1cccc(-c2cnc3[nH]cc(-c4ccc5ncn(C6CCCNC6)c5c4)c3c2)c1` (stereo not drawn) [P-200, 3-[3-[3-(3-piperidyl)benzimidazol-5-yl]-1H-pyrrolo[2,3-b]pyridin-5-yl]benzonitrile]: the IC50 on FLT3-D835Y and on FLT3-ITD was 0.0001 to 1 µM each time.
With `CC(C)(C)n1cnc2ccc(-c3c[nH]c4ncc(-c5ccnc(C6CC6)c5)nc34)cc21` [P-351, 7-(3-tert-butylbenzimidazol-5-yl)-2-(2-cyclopropyl-4-pyridyl)-5H-pyrrolo[2,3-b]pyrazine], the 50% inhibitory concentration (IC50) against FLT3-D835Y and at FLT3-ITD was 0.0001 to 1 µM in each case.
For `N#Cc1cccc(-c2cnc3[nH]cc(-c4ccc5ncsc5c4)c3n2)c1` [P-181, 3-[7-(1,3-benzothiazol-6-yl)-5H-pyrrolo[2,3-b]pyrazin-2-yl]benzonitrile], the concentration for half-maximal inhibition (IC50) at FLT3-D835Y and on FLT3-ITD was 0.0001 to 1 µM each time.
With `Fc1ccc(-n2cnc3ccc(-c4c[nH]c5ncc(-c6cccc(OC(F)(F)F)c6)cc45)cc32)cc1Cl` [P-211, 1-(3-chloro-4-fluoro-phenyl)-6-[5-[3-(trifluoromethoxy)phenyl]-1H-pyrrolo[2,3-b]pyridin-3-yl]benzimidazole], the IC50 on FLT3-D835Y and on FLT3-ITD was 0.0001 to 1 µM each time.
On to `O=C(O)Cc1cccc(-c2cnc3[nH]cc(-c4ccc5ncsc5c4)c3n2)c1` [P-164, 2-[3-[7-(1,3-benzothiazol-6-yl)-5H-pyrrolo[2,3-b]pyrazin-2-yl]phenyl]acetic acid], for which the IC50 against FLT3-D835Y and on FLT3-ITD was 0.0001 to 1 µM in each case.
With `Cn1cnc2ccc(-c3c[nH]c4ncc(-c5cccc(C#N)c5)nc34)cc21` [P-146, 3-[7-(3-methylbenzimidazol-5-yl)-5H-pyrrolo[2,3-b]pyrazin-2-yl]benzonitrile], the IC50 against FLT3-D835Y and at FLT3-ITD was 0.0001 to 1 µM throughout.
